Counter-ions that a name gives are not always drawn.

This series can be described thus: in vitro. Conditions: human, hek293t cells.
Consider `Cc1cc(C)n2c(-c3c(Cl)cccc3NC(=O)CCl)nnc2n1` [5-M16, 2-chloro-N-(3-chloro-2-{5,7-dimethyl-[1,2,4]triazolo[4,3-a]pyrimidin-3-yl}phenyl)acetamide], for which the viability (as a rule, a read-out of living cells in per cent, often relative to untreated cells) at 48 h, 25 µM turned out to be 1.81%. As for `O=C(CCl)N1N=C(c2ccco2)CC1c1cccc(Cl)c1` (stereo not drawn) [5-M17, 2-chloro-1-[5-(3-chlorophenyl)-3-(furan-2-yl)-4,5-dihydro-1H-pyrazol-1-yl]ethan-1-one], the viability at 48 h, 25 µM turned out to be 0.403%.

For `Cc1nn(C)c(C)c1C(NC(=O)CCl)C(F)(F)F` (stereo not drawn) [5-M18, 2-chloro-N-[2,2,2-trifluoro-1-(1,3,5-trimethyl-1H-pyrazol-4-yl)ethyl]acetamide], the viability at 48 h, 25 µM worked out at 1.44%. Next, `CC(Cl)C(=O)NC1CCCc2ccccc21` (stereo not drawn) [5-M19, 2-chloro-N-(1,2,3,4-tetrahydronaphthalen-1-yl)propanamide]: 74.2%; `CC(=O)NC1Cc2ccccc2N(C(=O)CCl)C1` (stereo not drawn) [5-M20, N-[1-(2-chloroacetyl)-1,2,3,4-tetrahydroquinolin-3-yl]acetamide]: 1.81%; `COc1ccccc1CNC(=O)C(C)Cl` (stereo not drawn) [5-M21, 2-chloro-N-[(2-methoxyphenyl)methyl]propanamide]: 68.7%. In the case of `CN(C)c1nc(N2CCOCC2)ncc1NC(=O)CCl` [5-M22, 2-chloro-N-[4-(dimethylamino)-2-(morpholin-4-yl)pyrimidin-5-yl]acetamide] it was 38.9%; in that of `Cc1ccc(CN(Cc2c(C)noc2C)C(=O)CCl)c(C)c1` [5-N03, 2-chloro-N-[(3,5-dimethyl-1,2-oxazol-4-yl)methyl]-N-[(2,4-dimethylphenyl)methyl]acetamide], 1.14%; in that of `CC(Cl)C(=O)Nc1ccc(N(C)C)cc1` (stereo not drawn) [5-N04, 2-chloro-N-[4-(dimethylamino)phenyl]propanamide hydrochloride], 99.3%. For `O=C(NCc1ccco1)C1CCCN1C(=O)CCl` (stereo not drawn) [5-N05, 1-(2-chloroacetyl)-N-[(furan-2-yl)methyl]pyrrolidine-2-carboxamide], the viability at 48 h, 25 µM is 1.39%. Regarding `CC(=O)Nc1ccc(NC(=O)C(C)Cl)cc1` (stereo not drawn) [5-N06, 2-chloro-N-(4-acetamidophenyl)propanamide], the viability at 48 h, 25 µM stood at 101%. Next, `CN(C(=O)CCl)C1CCCCC1` [5-N07, 2-chloro-N-cyclohexyl-N-methylacetamide]: 0.964%. Regarding `O=C(CCl)Nc1ccc(Cl)cc1[N+](=O)[O-]` [5-N08, 2-chloro-N-(4-chloro-2-nitrophenyl)acetamide], the viability at 48 h, 25 µM amounted to 76.9%.

With `N#Cc1ccc2c(c1)CCN2C(=O)CCl` [5-N09, 1-(2-chloroacetyl)-2,3-dihydro-1H-indole-5-carbonitrile], the viability at 48 h, 25 µM came out at 0.856%. For `CN(C1CCCCC1)S(=O)(=O)c1ccccc1NC(=O)CCl` [5-N10, 2-chloro-N-{2-[cyclohexyl(methyl)sulfamoyl]phenyl}acetamide], the viability at 48 h, 25 µM came to 0.725%.

For the compound `CC(Cc1ccc(Cl)s1)NC(=O)CCl` (stereo not drawn) [5-N11, 2-chloro-N-[1-(5-chlorothiophen-2-yl)propan-2-yl]acetamide], the viability at 48 h, 25 µM turned out to be 0.992%. In the case of `CC(Cl)C(=O)Nc1cccc2ccccc12` (stereo not drawn) [5-N12, 2-chloro-N-(naphthalen-1-yl)propanamide] it was 99.8%; in that of `C=CC(NC(=O)CCl)C1CCOCC1` (stereo not drawn) [5-N13, 2-chloro-N-[1-(oxan-4-yl)prop-2-en-1-yl]acetamide], 111%; in that of `COc1ccc([N+](=O)[O-])cc1NC(=O)C(C)Cl` (stereo not drawn) [5-N14, 2-chloro-N-(2-methoxy-5-nitrophenyl)propanamide], 96.3%. For the compound `CC(Cl)C(=O)NC(C)c1nnc(-c2cccc(F)c2)s1` (stereo not drawn) [5-N15, 2-chloro-N-{1-[5-(3-fluorophenyl)-1,3,4-thiadiazol-2-yl]ethyl}propanamide], the viability at 48 h, 25 µM turned out to be 98.1%. With `O=C(CCl)N(CC1CCCO1)C1CCS(=O)(=O)C1` (stereo not drawn) [5-N16, 2-chloro-N-(1,1-dioxo-1lambda6-thiolan-3-yl)-N-[(oxolan-2-yl)methyl]acetamide], the viability at 48 h, 25 µM was 2.2%.

Take `CC(Cl)C(=O)NC1CCc2cc(C#N)ccc21` (stereo not drawn) [5-N17, 2-chloro-N-(5-cyano-2,3-dihydro-1H-inden-1-yl)propanamide]: the viability at 48 h, 25 µM was 105%.

Turning to `O=C(CCl)N(Cc1ccsc1)C1CC1` [5-N18, 2-chloro-N-cyclopropyl-N-[(thiophen-3-yl)methyl]acetamide], the viability at 48 h, 25 µM turned out to be 1.23%. With `CC(Cl)C(=O)NCCC1=CCCCCC1` (stereo not drawn) [5-N19, 2-chloro-N-[2-(cyclohept-1-en-1-yl)ethyl]propanamide], the viability at 48 h, 25 µM is 120%.

For the compound `Cc1c(Cl)cccc1NC(=O)CNC(=O)CCl` [5-N20, 2-chloro-N-{[(3-chloro-2-methylphenyl)carbamoyl]methyl}acetamide], the viability at 48 h, 25 µM was found to be 1.4%. With `CCOC(=O)c1cnn2ccc(NC(=O)C(C)Cl)cc12` (stereo not drawn) [5-N21, ethyl 5-(2-chloropropanamido)pyrazolo[1,5-a]pyridine-3-carboxylate], the viability at 48 h, 25 µM was 89.8%. Consider `CCSc1nnc(NC(=O)CCl)s1` [5-N22, 2-chloro-N-[5-(ethylsulfanyl)-1,3,4-thiadiazol-2-yl]acetamide], for which the viability at 48 h, 25 µM came out at 7.36%. Take `Cc1ccc(CNC(=O)C(C)Cl)cc1` (stereo not drawn) [5-O03, 2-chloro-N-[(4-methylphenyl)methyl]propanamide]: the viability at 48 h, 25 µM was found to be 94.7%. In the case of `O=C(CCl)N1CCN(Cc2ccon2)CC1` [5-O04, 2-chloro-1-{4-[(1,2-oxazol-3-yl)methyl]piperazin-1-yl}ethan-1-one], the viability at 48 h, 25 µM came to 104%. For `O=C(CCl)NCCc1cccc(Cl)c1` [5-O05, 2-chloro-N-[2-(3-chlorophenyl)ethyl]acetamide], the viability at 48 h, 25 µM was determined as 36.9%.

As to `CC(NC(=O)CCl)c1cn(-c2ccccc2)nn1` (stereo not drawn) [5-O06, 2-chloro-N-[1-(1-phenyl-1H-1,2,3-triazol-4-yl)ethyl]acetamide], the viability at 48 h, 25 µM was determined as 4.63%. Next, `O=C(CCl)NC1CCN(C(=O)c2ccco2)c2ccccc21` (stereo not drawn) [5-O07, 2-chloro-N-[1-(furan-2-carbonyl)-1,2,3,4-tetrahydroquinolin-4-yl]acetamide]: 1.59%; `CC1CC(NC(=O)CCl)C(=O)N1c1cnn(C)c1` (stereo not drawn) [5-O08, 2-chloro-N-[5-methyl-1-(1-methyl-1H-pyrazol-4-yl)-2-oxopyrrolidin-3-yl]acetamide]: 100%. Turning to `O=C(CCl)NC1CCCc2cn(C3CCCC3)nc21` (stereo not drawn) [5-O09, 2-chloro-N-(2-cyclopentyl-4,5,6,7-tetrahydro-2H-indazol-7-yl)acetamide], the viability at 48 h, 25 µM worked out at 20.7%. As to `C#Cc1cccc(N(Cc2cc3n(n2)CCCO3)C(=O)CCl)c1` [5-O10, 2-chloro-N-(3-ethynylphenyl)-N-({5H,6H,7H-pyrazolo[3,2-b][1,3]oxazin-2-yl}methyl)acetamide], the viability at 48 h, 25 µM was found to be 0.703%. Consider `COc1ccc(CNC(=O)CCl)cc1OC` [5-O11, 2-chloro-N-[(3,4-dimethoxyphenyl)methyl]acetamide], for which the viability at 48 h, 25 µM was determined as 23.8%. Next, `CS(=O)(=O)N1CCC(N(CC(F)F)C(=O)CCl)CC1` [5-O12, 2-chloro-N-(2,2-difluoroethyl)-N-(1-methanesulfonylpiperidin-4-yl)acetamide]: 1.77%; `O=C(CCl)Nc1ccnn1Cc1cccs1` [5-O13, 2-chloro-N-{1-[(thiophen-2-yl)methyl]-1H-pyrazol-5-yl}acetamide]: 0.591%; `CCC(NC(=O)CCl)c1nc(C)n[nH]1` (stereo not drawn) [5-O14, 2-chloro-N-[1-(3-methyl-1H-1,2,4-triazol-5-yl)propyl]acetamide]: 96.8%.

Turning to `CC1CN(S(=O)(=O)c2ccc(NC(=O)CCl)cc2)CC(C)O1` (stereo not drawn) [5-O15, 2-chloro-N-{4-[(2,6-dimethylmorpholin-4-yl)sulfonyl]phenyl}acetamide], the viability at 48 h, 25 µM was found to be 1.43%. As to `COc1ccccc1C1CSCCCN1C(=O)CCl` (stereo not drawn) [5-O16, 2-chloro-1-[3-(2-methoxyphenyl)-1,4-thiazepan-4-yl]ethan-1-one], the viability at 48 h, 25 µM amounted to 78.1%. On to `COc1ccc(N(Cc2cccs2)C(=O)CCl)cc1` [5-O17, 2-chloro-N-(4-methoxyphenyl)-N-[(thiophen-2-yl)methyl]acetamide], for which the viability at 48 h, 25 µM amounted to 0.692%. `O=C(CCl)N1CC(NC(=O)C(F)(F)F)CCC1C(F)(F)F` (stereo not drawn) [5-O18, N-[1-(2-chloroacetyl)-6-(trifluoromethyl)piperidin-3-yl]-2,2,2-trifluoroacetamide]: the viability at 48 h, 25 µM was determined as 6.17%. Next, `CC(=O)c1ccccc1NC(=O)C(C)Cl` (stereo not drawn) [5-O19, N-(2-acetylphenyl)-2-chloropropanamide]: 90.1%; `COC1CCC(N(Cc2cc(C)oc2C)C(=O)CCl)CC1` (stereo not drawn) [5-O20, 2-chloro-N-[(2,5-dimethylfuran-3-yl)methyl]-N-(4-methoxycyclohexyl)acetamide]: 2.21%. Next, `CC(Cl)C(=O)NC1CCCCCC1` (stereo not drawn) [5-O21, 2-chloro-N-cycloheptylpropanamide]: 105%; `COc1ccc(CC2CCN2C(=O)C(C)Cl)cc1` (stereo not drawn) [5-O22, 2-chloro-1-{2-[(4-methoxyphenyl)methyl]azetidin-1-yl}propan-1-one]: 88.3%. `O=C(CCl)N(Cc1cc(F)ccc1F)CC1CCOCC1` [5-P03, 2-chloro-N-[(2,5-difluorophenyl)methyl]-N-[(oxan-4-yl)methyl]acetamide]: the viability at 48 h, 25 µM stood at 0.456%. With `N#Cc1ccccc1NC(=O)CCl` [5-P04, 2-chloro-N-(2-cyanophenyl)acetamide], the viability at 48 h, 25 µM is 0.525%.

For `CNC(=O)c1cc(OC2CCCN(C(=O)CCl)C2)ccn1` (stereo not drawn) [5-P05, 4-{[1-(2-chloroacetyl)piperidin-3-yl]oxy}-N-methylpyridine-2-carboxamide], the viability at 48 h, 25 µM was 1.84%.

With `O=C(CCl)NCc1ccccc1Cn1cccn1` [5-P06, 2-chloro-N-({2-[(1H-pyrazol-1-yl)methyl]phenyl}methyl)acetamide], the viability at 48 h, 25 µM amounted to 94%.
